Measurements: patent US11667602B2, “Compounds and their use” (AstraZeneca AB, priority 2020, dated 2023)
≈ marks a conversion by molar mass, not a printed value.

Key:
[1] = Rat Hepatocyte Stability (Test E); format: in vitro ADME; conditions: rat, hepatocytes, geometric mean if run multiple times
Outline: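 Intrinsic clearance in rat hepatocytes, expressed as μl/min/10^6 cells, following the literature integrated DMPK panel method. Repeat determinations combined as geometric mean.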

[2] = target: T1, human RXFP1 (Homo sapiens, UniProt Q9HBX9); test: RXFP1 Hu cAMP (Test A); format: cell-based; parameters: expressed in transfected cells; host or cells: Jump-In T-REx CHO-K1 cells (ThermoFisher), induced with 10 ng/ml doxycycline for 24 h; conditions: RXFP1 Hu cAMP; for EC50: read-out: Test A EC50
T1 sequence (Q9HBX9 1-757): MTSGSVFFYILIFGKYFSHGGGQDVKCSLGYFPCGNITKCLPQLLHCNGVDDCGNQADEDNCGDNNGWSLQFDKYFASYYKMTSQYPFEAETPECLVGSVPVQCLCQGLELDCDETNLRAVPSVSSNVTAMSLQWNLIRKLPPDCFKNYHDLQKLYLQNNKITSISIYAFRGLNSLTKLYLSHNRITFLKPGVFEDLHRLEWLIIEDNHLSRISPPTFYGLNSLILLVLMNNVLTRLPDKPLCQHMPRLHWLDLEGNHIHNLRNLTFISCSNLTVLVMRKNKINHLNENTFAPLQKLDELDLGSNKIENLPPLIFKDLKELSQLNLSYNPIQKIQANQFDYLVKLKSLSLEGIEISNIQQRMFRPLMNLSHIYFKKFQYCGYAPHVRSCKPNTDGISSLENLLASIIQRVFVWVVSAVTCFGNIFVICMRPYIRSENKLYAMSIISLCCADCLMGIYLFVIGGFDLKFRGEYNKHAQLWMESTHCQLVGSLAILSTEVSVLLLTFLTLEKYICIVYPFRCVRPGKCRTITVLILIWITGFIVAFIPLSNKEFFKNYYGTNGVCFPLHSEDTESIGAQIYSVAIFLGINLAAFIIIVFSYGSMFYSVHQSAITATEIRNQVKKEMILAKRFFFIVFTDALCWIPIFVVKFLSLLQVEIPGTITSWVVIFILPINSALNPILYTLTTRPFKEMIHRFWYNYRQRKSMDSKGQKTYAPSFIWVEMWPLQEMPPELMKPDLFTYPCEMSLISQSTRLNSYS
Outline: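 CHO-K1 (Jump-In T-REx), RXFP1 induced w/ 10 ng/ml doxycycline 24 h, cryopreserved. 0.5 mM IBMX final. cAMP by HTRF, 2 h RT, std curve.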

[3] = Solubility (Test F); format: physicochemical; conditions: arithmetic mean if run multiple times
Description: The assay was conducted according to the Solubility Assay described in pages 164-167 of Wernevik, J. et al., “A Fully Integrated Assay Panel for Early Drug Metabolism and Pharmacokinetics Profiling”, Assay and Drug Development Technologies, 2020, 18(4), 157-179. Data are reported in Table 36 as solubility ([…]. Where the assay was run multiple times for the same compound, the arithmetic mean is reported.

[4] = Human Plasma Protein Binding (Test B); format: in vitro ADME; conditions: fraction unbound (fu)
Outline: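 Values given as % free (fu) in human plasma, using the method of Wernevik et al. (2020). For compounds tested more than once, the arithmetic mean is given.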

[5] = Human Liver Microsomal Stability (Test C); format: in vitro ADME; conditions: human, liver microsomes
Outline: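 CLint (μl/min/mg protein) derived from compound depletion in human liver microsomes following a published standardized early-DMPK protocol; replicate determinations given as arithmetic mean.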

Row | Compound | hepatocyte CLint [1] | Test A Sinf [2] | EC50 [2] | solubility [3] | Test B Human Plasma Protein Binding (% free) [4] | microsomal CLint [5]
1 | COc1cc(C#N)c(O[C@H]2CC[C@@](C)(C(=O)O)CC2)cc1C(=O)N[C@@H]1[C@H]2CC[C@H](C2)[C@@H]1C(=O)NC1(C#N)CC1 [Example 72] | 14 µL/min/1e6 cells | 75% | > 3100 nM | 950 µM (≈ 508 µg/mL) | 40 % free | < 3 µL/min/mg
2 | COc1cc(C#N)c(O[C@H]2CC[C@@](C)(C(=O)O)CC2)cc1C(=O)N[C@@H]1[C@H]2CC[C@H](C2)[C@@H]1C(=O)N[C@H]1C[C@@H](C)C1 [Example 73] | 18 µL/min/1e6 cells | 114% | 220 nM | 850 µM (≈ 457 µg/mL) | 12 % free | 11 µL/min/mg
3 | COc1cc(C#N)c(O[C@H]2CC[C@@](C)(C(=O)O)CC2)cc1C(=O)N[C@@H]1[C@H]2CC[C@H](C2)[C@@H]1C(=O)NCC1(O)CCCC1 [Example 74] | 10 µL/min/1e6 cells | – | > 5000 nM | 920 µM (≈ 522 µg/mL) | 26 % free | < 3 µL/min/mg
4 | COc1cc(C#N)c(O[C@H]2CC[C@@](C)(C(=O)O)CC2)cc1C(=O)N[C@@H]1[C@H]2CC[C@H](C2)[C@@H]1C(=O)NCC1(CO)CCC1 [Example 75] | 14 µL/min/1e6 cells | 110% | – | 880 µM (≈ 500 µg/mL) | 25 % free | < 3 µL/min/mg
5 | COc1cc(C#N)c(O[C@H]2CC[C@@](C)(C(=O)O)CC2)cc1C(=O)N[C@@H]1[C@H]2CC[C@H](C2)[C@@H]1C(=O)NCC(C)(C)O [Example 76] | 12 µL/min/1e6 cells | 100% | 41000 nM | 790 µM (≈ 428 µg/mL) | 47 % free | < 3 µL/min/mg
6 | COc1cc(C#N)c(O[C@H]2CC[C@@](C)(C(=O)O)CC2)cc1C(=O)N[C@@H]1[C@H]2CC[C@H](C2)[C@@H]1C(=O)NCC1(C(C)C)CC1 [Example 78] | 37 µL/min/1e6 cells | 120% | – | 820 µM (≈ 464 µg/mL) | 6.9 % free | 44 µL/min/mg
7 | COCC1(CNC(=O)[C@H]2[C@@H]3CC[C@@H](C3)[C@H]2NC(=O)c2cc(O[C@H]3CC[C@@](C)(C(=O)O)CC3)c(C#N)cc2OC)CC1 [Example 79] | 31 µL/min/1e6 cells | – | > 5000 nM | 980 µM (≈ 556 µg/mL) | 28 % free | 7.5 µL/min/mg
8 | COc1cc(C#N)c(O[C@H]2CC[C@@](C)(C(=O)O)CC2)cc1C(=O)N[C@@H]1[C@H]2CC[C@H](C2)[C@@H]1C(=O)NCC1(OC)CCC1 [Example 80] | 23 µL/min/1e6 cells | 105% | 410 nM | 890 µM (≈ 505 µg/mL) | 16 % free | 8 µL/min/mg
9 | COc1cc(C#N)c(O[C@H]2CC[C@@](C)(C(=O)O)CC2)cc1C(=O)N[C@@H]1[C@H]2CC[C@H](C2)[C@@H]1C(=O)NC12CC3C[C@H](C1)C[C@H](C3)C2 [Example 81] | 57 µL/min/1e6 cells | 111% | 31 nM | 250 µM (≈ 151 µg/mL) | 2.7 % free | 97 µL/min/mg
10 | COc1cc(C#N)c(O[C@H]2CC[C@@](C)(C(=O)O)CC2)cc1C(=O)N[C@@H]1[C@H]2CC[C@H](C2)[C@@H]1C(=O)NCC1CCCCCC1 [Example 82] | 41 µL/min/1e6 cells | 114% | 32 nM | 330 µM (≈ 191 µg/mL) | 2.5 % free | 54 µL/min/mg
11 | CCCC1(CNC(=O)[C@H]2[C@@H]3CC[C@@H](C3)[C@H]2NC(=O)c2cc(O[C@H]3CC[C@@](C)(C(=O)O)CC3)c(C#N)cc2OC)CCC1 [Example 83] | 25 µL/min/1e6 cells | 111% | 17 nM | 250 µM (≈ 145 µg/mL) | 1.6 % free | 130 µL/min/mg
12 | COc1cc(C#N)c(O[C@H]2CC[C@@](C)(C(=O)O)CC2)cc1C(=O)N[C@@H]1[C@H]2CC[C@H](C2)[C@@H]1C(=O)NCC1C(C)(C)C1(C)C [Example 84] | 19 µL/min/1e6 cells | 112% | 15 nM | 340 µM (≈ 197 µg/mL) | 4 % free | 160 µL/min/mg
13 | COc1cc(C#N)c(O[C@H]2CC[C@@](C)(C(=O)O)CC2)cc1C(=O)N[C@@H]1[C@H]2CC[C@H](C2)[C@@H]1C(=O)NCC(=O)NC(C)C [Example 85] | 15 µL/min/1e6 cells | – | > 9400 nM | 920 µM (≈ 523 µg/mL) | 50 % free | < 3 µL/min/mg
14 | CCC1(CNC(=O)[C@H]2[C@@H]3CC[C@@H](C3)[C@H]2NC(=O)c2cc(O[C@H]3CC[C@@](C)(C(=O)O)CC3)c(C#N)cc2OC)CCC1 [Example 86] | 26 µL/min/1e6 cells | 115% | 20 nM | 540 µM (≈ 305 µg/mL) | 4.1 % free | 64 µL/min/mg
15 | COc1cc(C#N)c(O[C@H]2CC[C@@](C)(C(=O)O)CC2)cc1C(=O)N[C@@H]1[C@H]2CC[C@H](C2)[C@@H]1C(=O)NCC1CC(C)(C)C1 [Example 87] | 24 µL/min/1e6 cells | 109% | 110 nM | 690 µM (≈ 390 µg/mL) | 6.7 % free | 20 µL/min/mg
16 | CCC(CC)CNC(=O)[C@H]1[C@@H]2CC[C@@H](C2)[C@H]1NC(=O)c1cc(O[C@H]2CC[C@@](C)(C(=O)O)CC2)c(C#N)cc1OC [Example 88] | 26 µL/min/1e6 cells | 124% | 33 nM | 610 µM (≈ 338 µg/mL) | 4.4 % free | 40 µL/min/mg
17 | COc1cc(C#N)c(O[C@H]2CC[C@@](C)(C(=O)O)CC2)cc1C(=O)N[C@@H]1[C@H]2CC[C@H](C2)[C@@H]1C(=O)NC[C@H](F)CO [Example 89] | 17 µL/min/1e6 cells | – | > 5000 nM | 780 µM (≈ 426 µg/mL) | 50 % free | < 3 µL/min/mg
18 | CCCCNC(=O)[C@H]1[C@@H]2CC[C@@H](C2)[C@H]1NC(=O)c1cc(O[C@H]2CC[C@@](C)(C(=O)O)CC2)c(C#N)cc1OC [Example 91] | 59 µL/min/1e6 cells | 114% | 270 nM | 830 µM (≈ 436 µg/mL) | 5.9 % free | 20 µL/min/mg
